Results as given in paper PMC5218480 (PLoS ONE, 2017).

System: MV-4-11 cells
Experiment: Gene expression microarray analysis (Affymetrix PrimeView) and GSEA
Assay type: cell-based, human
Design: RFU PODN (11730768_x_at) / Fold change /veh PODN (11730768_x_at) / RFU LINC00158 (11744669_a_at) / Fold change /veh LINC00158 (11744669_a_at) / RFU DUSP10 (11751237_a_at) / Fold change /veh DUSP10 (11751237_a_at) / RFU ID3 (11757404_x_at) / Fold change /veh ID3 (11757404_x_at) / RFU PLEKHG5 (11737974_s_at) / Fold change /veh PLEKHG5 (11737974_s_at) / RFU LRRC4B (11730491_at) / Fold change /veh LRRC4B (11730491_at) / RFU GIMAP4 (11747438_a_at) / Fold change /veh GIMAP4 (11747438_a_at) / RFU KRT8 (11758183_x_at) / Fold change /veh KRT8 (11758183_x_at) / RFU CNN1 (11734310_a_at) / Fold change /veh CNN1 (11734310_a_at) / RFU VPS37D (11726825_at) / Fold change /veh VPS37D (11726825_at) / RFU C10orf10 (11716522_x_at) / Fold change /veh C10orf10 (11716522_x_at) / RFU KIR2DL2 /// KIR2DL4 /// KIR2DL5A /// KIR2DL5B /// KIR2DS1 /// KIR2DS2 /// KIR2DS3 /// KIR2DS4 /// KIR3DL3 /// KIR3DL3 /// KIR3DS1 (11738374_at) / Fold change /veh KIR2DL2 /// KIR2DL4 /// KIR2DL5A /// KIR2DL5B /// KIR2DS1 /// KIR2DS2 /// KIR2DS3 /// KIR2DS4 /// KIR3DL3 /// KIR3DL3 /// KIR3DS1 (11738374_at) / RFU C1QL1 (11718748_at) / Fold change /veh C1QL1 (11718748_at) / RFU TMPRSS4 (11747572_a_at) / Fold change /veh TMPRSS4 (11747572_a_at) / RFU HAMP (11756126_x_at) / Fold change /veh HAMP (11756126_x_at) / RFU RNFT2 (11725882_a_at) / Fold change /veh RNFT2 (11725882_a_at) / RFU NR4A2 (11747474_a_at) / Fold change /veh NR4A2 (11747474_a_at) / RFU ABCC12 (11746883_a_at) / Fold change /veh ABCC12 (11746883_a_at) / RFU TMEM136 (11760407_x_at) / Fold change /veh TMEM136 (11760407_x_at) / RFU CLDN22 /// WWC2 (11732394_at) / Fold change /veh CLDN22 /// WWC2 (11732394_at) / RFU HLA-DPB1 (11760878_x_at) / Fold change /veh HLA-DPB1 (11760878_x_at) / RFU SPINT1 (11716480_a_at) / Fold change /veh SPINT1 (11716480_a_at) / RFU GAP43 (11754022_s_at) / Fold change /veh GAP43 (11754022_s_at) / RFU A4GNT (11735810_at) / Fold change /veh A4GNT (11735810_at) / RFU PRB3 (11715151_x_at) / Fold change /veh PRB3 (11715151_x_at) / RFU TUBB4B (11761932_at) / Fold change /veh TUBB4B (11761932_at) / RFU CAPN14 (11732068_a_at) / Fold change /veh CAPN14 (11732068_a_at) / RFU TMCC2 (11721928_a_at) / Fold change /veh TMCC2 (11721928_a_at) / RFU IRGQ (11745062_a_at) / Fold change /veh IRGQ (11745062_a_at) / RFU FAM174B (11720279_a_at) / Fold change /veh FAM174B (11720279_a_at) / RFU TMPRSS4 (11748680_a_at) / Fold change /veh TMPRSS4 (11748680_a_at) / RFU FAM212B (11763350_a_at) / Fold change /veh FAM212B (11763350_a_at) / RFU PLEKHG5 (11743358_a_at) / Fold change /veh PLEKHG5 (11743358_a_at) / RFU ZSCAN30 (11745921_a_at) / Fold change /veh ZSCAN30 (11745921_a_at) / RFU CMKLR1 (11741424_a_at) / Fold change /veh CMKLR1 (11741424_a_at) / RFU LOC101060620 /// MAPK8IP1 (11723275_at) / Fold change /veh LOC101060620 /// MAPK8IP1 (11723275_at) / RFU SPTSSB (11747773_x_at) / Fold change /veh SPTSSB (11747773_x_at) / RFU PRSS12 (11739890_at) / Fold change /veh PRSS12 (11739890_at) / RFU BIN1 (11741810_x_at) / Fold change /veh BIN1 (11741810_x_at) / RFU WNT11 (11732464_a_at) / Fold change /veh WNT11 (11732464_a_at) / RFU C10orf10 (11716521_a_at) / Fold change /veh C10orf10 (11716521_a_at) / RFU C5orf56 (11738089_at) / Fold change /veh C5orf56 (11738089_at) / RFU CYB561 (11721691_x_at) / Fold change /veh CYB561 (11721691_x_at) / RFU ANKRD19P (11752326_a_at) / Fold change /veh ANKRD19P (11752326_a_at) / RFU OR2T12 /// OR2T33 /// OR2T8 (11738714_s_at) / Fold change /veh OR2T12 /// OR2T33 /// OR2T8 (11738714_s_at) / RFU VCAN (11748164_a_at) / Fold change /veh VCAN (11748164_a_at) / RFU JSRP1 (11732532_at) / Fold change /veh JSRP1 (11732532_at) / RFU KRTAP10-11 (11738290_x_at) / Fold change /veh KRTAP10-11 (11738290_x_at) / RFU MYO3A (11730013_a_at) / Fold change /veh MYO3A (11730013_a_at) / RFU EBF3 (11725865_a_at) / Fold change /veh EBF3 (11725865_a_at) / RFU CAMK2N1 (11719241_x_at) / Fold change /veh CAMK2N1 (11719241_x_at) / RFU C5orf56 (11738088_a_at) / Fold change /veh C5orf56 (11738088_a_at) / RFU OLFML3 (11715873_a_at) / Fold change /veh OLFML3 (11715873_a_at) / RFU LOC100653217 /// NTM (11731650_a_at) / Fold change /veh LOC100653217 /// NTM (11731650_a_at) / RFU MAPK11 (11762145_a_at) / Fold change /veh MAPK11 (11762145_a_at) / RFU FIZ1 (11724087_x_at) / Fold change /veh FIZ1 (11724087_x_at) / RFU OASL (11726364_x_at) / Fold change /veh OASL (11726364_x_at) / RFU SOX15 (11748057_x_at) / Fold change /veh SOX15 (11748057_x_at) / RFU CD79A (11719716_a_at) / Fold change /veh CD79A (11719716_a_at) / RFU HIST1H1D (11736915_at) / Fold change /veh HIST1H1D (11736915_at) / RFU CASKIN2 (11723855_a_at) / Fold change /veh CASKIN2 (11723855_a_at) / RFU LOC730098 (11760151_x_at) / Fold change /veh LOC730098 (11760151_x_at) / RFU OR4N2 (11742367_at) / Fold change /veh OR4N2 (11742367_at) / RFU PRRT2 (11749266_a_at) / Fold change /veh PRRT2 (11749266_a_at) / RFU SNX32 (11753110_a_at) / Fold change /veh SNX32 (11753110_a_at) / RFU CDHR5 (11726645_a_at) / Fold change /veh CDHR5 (11726645_a_at) / RFU RCAN1 (11760418_a_at) / Fold change /veh RCAN1 (11760418_a_at) / RFU FAM167A (11723789_a_at) / Fold change /veh FAM167A (11723789_a_at) / RFU FAM26E (11764081_at) / Fold change /veh FAM26E (11764081_at) / RFU ISYNA1 (11749810_s_at) / Fold change /veh ISYNA1 (11749810_s_at) / RFU ACY1 (11761880_at) / Fold change /veh ACY1 (11761880_at) / RFU 11764098_at / Fold change /veh 11764098_at / RFU SAMD14 (11745864_x_at) / Fold change /veh SAMD14 (11745864_x_at) / RFU NPB (11741838_a_at) / Fold change /veh NPB (11741838_a_at) / RFU TMPRSS6 (11731388_a_at) / Fold change /veh TMPRSS6 (11731388_a_at) / RFU KRTAP10-2 (11738614_at) / Fold change /veh KRTAP10-2 (11738614_at) / RFU ARHGAP8 /// PRR5-ARHGAP8 (11727945_x_at) / Fold change /veh ARHGAP8 /// PRR5-ARHGAP8 (11727945_x_at) / RFU KRTAP5-7 /// NADSYN1 (11734609_at) / Fold change /veh KRTAP5-7 /// NADSYN1 (11734609_at) / RFU RASL12 (11751679_a_at) / Fold change /veh RASL12 (11751679_a_at) / RFU CDKN2B (11736163_a_at) / Fold change /veh CDKN2B (11736163_a_at) / RFU PRF1 (11729649_at) / Fold change /veh PRF1 (11729649_at) / RFU, ZNF638 /// ZNF638-IT1 / Fold change vs veh, ZNF638 /// ZNF638-IT1 / RFU, PANK3 / Fold change vs veh, PANK3 / RFU, SH3YL1 / Fold change vs veh, SH3YL1 / RFU, ZEB2 / Fold change vs veh, ZEB2 / RFU, NRIP1 / Fold change vs veh, NRIP1 / RFU, PTTG1IP / Fold change vs veh, PTTG1IP / RFU, CAPN2 / Fold change vs veh, CAPN2 / RFU, MED14 / Fold change vs veh, MED14 / RFU, SNORA58 / Fold change vs veh, SNORA58 / RFU, C1orf63 / Fold change vs veh, C1orf63 / RFU, LRRFIP1 / Fold change vs veh, LRRFIP1 / RFU, NDUFAF7 / Fold change vs veh, NDUFAF7 / RFU, SLC12A2 / Fold change vs veh, SLC12A2 / RFU, IBTK / Fold change vs veh, IBTK / RFU, ESF1 / Fold change vs veh, ESF1 / Fold change vs veh, TMEM50B / RFU, TAOK1 / Fold change vs veh, TAOK1 / RFU, ACBD3 / Fold change vs veh, ACBD3 / RFU, TMA16 / Fold change vs veh, TMA16 / RFU, RWDD3 / Fold change vs veh, RWDD3 / RFU, BCAT1 / Fold change vs veh, BCAT1 / RFU, EDEM3 / Fold change vs veh, EDEM3 / RFU, TMEM33 / Fold change vs veh, TMEM33 / RFU, WDR75 / Fold change vs veh, WDR75 / RFU, AHCTF1 / Fold change vs veh, AHCTF1 / RFU, TFRC / Fold change vs veh, TFRC / RFU, ZDHHC17 / Fold change vs veh, ZDHHC17 / RFU, NOM1 / Fold change vs veh, NOM1 / RFU, ARL8B / Fold change vs veh, ARL8B / RFU, ZBTB11 / Fold change vs veh, ZBTB11 / RFU, TAMM41 / Fold change vs veh, TAMM41 / RFU, KIAA1704 /// LOC100996395 / Fold change vs veh, KIAA1704 /// LOC100996395 / RFU, ING1 / Fold change vs veh, ING1 / RFU, TRMT61B / Fold change vs veh, TRMT61B / RFU, FUBP3 / Fold change vs veh, FUBP3 / RFU, TP53 / Fold change vs veh, TP53 / RFU, TNKS2 / Fold change vs veh, TNKS2 / RFU, ZFP14 / Fold change vs veh, ZFP14 / RFU, ACTR2 / Fold change vs veh, ACTR2 / RFU, PPP3R1 / Fold change vs veh, PPP3R1 / RFU, PIK3R1 / Fold change vs veh, PIK3R1 / RFU, HNRNPA1 / Fold change vs veh, HNRNPA1 / RFU, RNF170 / Fold change vs veh, RNF170 / RFU, ZNF28 / Fold change vs veh, ZNF28 / RFU, RNGTT / Fold change vs veh, RNGTT / RFU, OGT / Fold change vs veh, OGT / RFU, BRD1 / Fold change vs veh, BRD1 / RFU, MARS / Fold change vs veh, MARS / RFU, ZNF655 / Fold change vs veh, ZNF655 / RFU, FAHD1 / Fold change vs veh, FAHD1 / RFU, BDP1 / Fold change vs veh, BDP1 / RFU, LRRCC1 / Fold change vs veh, LRRCC1 / RFU, ARID1A / Fold change vs veh, ARID1A / RFU, ZNF146 / Fold change vs veh, ZNF146 / RFU, ZNF330 / Fold change vs veh, ZNF330 / RFU, GPN3 / Fold change vs veh, GPN3 / RFU, C9orf123 / Fold change vs veh, C9orf123 / RFU, N4BP2L2 / Fold change vs veh, N4BP2L2 / RFU, ARFIP1 / Fold change vs veh, ARFIP1 / RFU, FAM179B / Fold change vs veh, FAM179B / RFU, BCL10 / Fold change vs veh, BCL10 / RFU, UHRF1BP1L / Fold change vs veh, UHRF1BP1L / RFU, BET1 / Fold change vs veh, BET1 / RFU, CNOT2 / Fold change vs veh, CNOT2 / RFU, ZNF268 / Fold change vs veh, ZNF268 / Fold change vs veh, ZNF507 / RFU, DGCR2 / Fold change vs veh, DGCR2 / RFU, WDSUB1 / Fold change vs veh, WDSUB1 / Fold change vs veh, HSP90B1 /// MIR3652 / RFU, ADSS / Fold change vs veh, ADSS / RFU, GK / Fold change vs veh, GK / RFU, ZNF148 / Fold change vs veh, ZNF148 / RFU, TAF9 / Fold change vs veh, TAF9 / RFU, SLC1A5 / Fold change vs veh, SLC1A5 / RFU, SLMO2 / Fold change vs veh, SLMO2 / RFU, ABCC4 / Fold change vs veh, ABCC4 / RFU, LOC101060439 /// RAP1B / Fold change vs veh, LOC101060439 /// RAP1B / RFU, RFX7 / Fold change vs veh, RFX7 / RFU, GTPBP10 / Fold change vs veh, GTPBP10 / RFU, CNEP1R1 / Fold change vs veh, CNEP1R1 / RFU, BIVM-ERCC5 /// ERCC5 / Fold change vs veh, BIVM-ERCC5 /// ERCC5 / RFU, ILF3 / Fold change vs veh, ILF3 / RFU 11762660_at / Fold change /veh 11762660_at / RFU VCAN (11757783_s_at) / Fold change /veh VCAN (11757783_s_at) / RFU DDX43 (11728927_at) / Fold change /veh DDX43 (11728927_at) / RFU KRT8 (11758188_x_at) / Fold change /veh KRT8 (11758188_x_at) / RFU NKD1 (11759106_at) / Fold change /veh NKD1 (11759106_at) / RFU SRD5A1 (11742802_a_at) / Fold change /veh SRD5A1 (11742802_a_at) / RFU TPSAB1 /// TPSB2 (11721975_s_at) / Fold change /veh TPSAB1 /// TPSB2 (11721975_s_at) / RFU GSTM3 (11746129_a_at) / Fold change /veh GSTM3 (11746129_a_at) / RFU IL23R (11737362_x_at) / Fold change /veh IL23R (11737362_x_at) / RFU TMEM51 (11727254_a_at) / Fold change /veh TMEM51 (11727254_a_at) / RFU PIWIL2 (11732686_x_at) / Fold change /veh PIWIL2 (11732686_x_at) / RFU ORM1 (11744905_x_at) / Fold change /veh ORM1 (11744905_x_at) / RFU CCDC152 (11743942_at) / Fold change /veh CCDC152 (11743942_at) / RFU ECM1 (11717891_a_at) / Fold change /veh ECM1 (11717891_a_at) / RFU IL23R (11748794_a_at) / Fold change /veh IL23R (11748794_a_at) / RFU TNFAIP8L3 (11732012_x_at) / Fold change /veh TNFAIP8L3 (11732012_x_at) / RFU MBOAT4 (11741988_at) / Fold change /veh MBOAT4 (11741988_at) / RFU 11764193_at / Fold change /veh 11764193_at / RFU TMEM53 (11763286_at) / Fold change /veh TMEM53 (11763286_at) / RFU MAGEB2 (11727129_at) / Fold change /veh MAGEB2 (11727129_at) / RFU TMEM200A (11744735_a_at) / Fold change /veh TMEM200A (11744735_a_at) / RFU CCDC152 (11751479_a_at) / Fold change /veh CCDC152 (11751479_a_at) / RFU FAM211A (11726209_a_at) / Fold change /veh FAM211A (11726209_a_at) / RFU RGS16 (11746705_a_at) / Fold change /veh RGS16 (11746705_a_at) / RFU VCAN (11755009_s_at) / Fold change /veh VCAN (11755009_s_at) / RFU RHOB (11743442_s_at) / Fold change /veh RHOB (11743442_s_at) / RFU RGS16 (11720943_a_at) / Fold change /veh RGS16 (11720943_a_at) / RFU RGS16 (11720944_at) / Fold change /veh RGS16 (11720944_at) / RFU, VPS4B / Fold change vs veh, VPS4B / RFU, CREB1 / Fold change vs veh, CREB1 / RFU, DNAJC13 / Fold change vs veh, DNAJC13 / RFU, GNAQ / Fold change vs veh, GNAQ / RFU, CDK5R1 / Fold change vs veh, CDK5R1 / RFU, ZRANB3 / Fold change vs veh, ZRANB3 / RFU, CUL4A / Fold change vs veh, CUL4A / RFU, CCNY / Fold change vs veh, CCNY / RFU, UFL1 / Fold change vs veh, UFL1 / RFU, COG3 / Fold change vs veh, COG3 / RFU, DIAPH2 / Fold change vs veh, DIAPH2 / RFU, SKA2 / Fold change vs veh, SKA2 / RFU, AFF3 / Fold change vs veh, AFF3 / RFU, LMF1 / Fold change vs veh, LMF1 / RFU, IPO11 / Fold change vs veh, IPO11 / RFU, DFFB / Fold change vs veh, DFFB / RFU, FOXP1 / Fold change vs veh, FOXP1 / RFU, CARD8 / Fold change vs veh, CARD8 / RFU, STRN3 / Fold change vs veh, STRN3 / RFU, ADK / Fold change vs veh, ADK / RFU, RASSF2 / Fold change vs veh, RASSF2 / RFU, WIPF1 / Fold change vs veh, WIPF1 / RFU, LARP1B / Fold change vs veh, LARP1B / RFU, RASA1 / Fold change vs veh, RASA1 / RFU, RB1 / Fold change vs veh, RB1 / RFU, PPFIA1 / Fold change vs veh, PPFIA1 / RFU, MAT2A / Fold change vs veh, MAT2A / RFU, CCT5 / Fold change vs veh, CCT5 / RFU, WDR92 / Fold change vs veh, WDR92 / RFU, CUX1 / Fold change vs veh, CUX1 / RFU, TTC7A / Fold change vs veh, TTC7A / RFU, TMEM135 / Fold change vs veh, TMEM135 / RFU, DEPTOR / Fold change vs veh, DEPTOR / RFU, CPM / Fold change vs veh, CPM / RFU, DNAJB6 / Fold change vs veh, DNAJB6 / RFU, CACNA2D3 / Fold change vs veh, CACNA2D3 / RFU, DTX4 / Fold change vs veh, DTX4 / RFU, TFCP2 / Fold change vs veh, TFCP2 / RFU, GMCL1 /// GMCL1P1 / Fold change vs veh, GMCL1 /// GMCL1P1 / RFU, AEBP2 / Fold change vs veh, AEBP2 / RFU, SNHG1 /// SNORD22 /// SNORD25 /// SNORD26 /// SNORD27 /// SNORD28 /// SNORD29 /// SNORD31 / Fold change vs veh, SNHG1 /// SNORD22 /// SNORD25 /// SNORD26 /// SNORD27 /// SNORD28 /// SNORD29 /// SNORD31 / Fold change (Aza/veh), C12orf56 (ProbeSet 11735607_a_at) / Fold change (ACY-1035/veh), C12orf56 (ProbeSet 11735607_a_at) / Fold change (Aza/veh), FGFR1OP (ProbeSet 11751329_s_at) / Fold change (ACY-1035/veh), FGFR1OP (ProbeSet 11751329_s_at) / Fold change (Aza/veh), VPS36 (ProbeSet 11739960_a_at) / Fold change (ACY-1035/veh), VPS36 (ProbeSet 11739960_a_at) / RFU SYPL1 (11715823_x_at) / Fold change /veh SYPL1 (11715823_x_at) / RFU IGFBP7 (11715501_s_at) / Fold change /veh IGFBP7 (11715501_s_at) / RFU REEP3 (11722064_at) / Fold change /veh REEP3 (11722064_at) / RFU IGLL1 (11728026_x_at) / Fold change /veh IGLL1 (11728026_x_at): dose or concentration left out as unconfirmed
Conditions: MV-4-11 cells, 48 hours

Nc1ccc(-c2cccs2)cc1NC(=O)c1ccc2c(c1)cc(C1CC1)n2CCN1CCOCC1 [ACY-1035]
Fold change /veh SYPL1 (11715823_x_at): 0.54
